We go through one compound from US8143241B2, “DNA damage repair inhibitors for treatment of cancer” (Kudos Pharmaceuticals Limited, priority 2003, dated 2012).

The experiment concerns the target vault PARP (Homo sapiens, UniProt Q9UKK3). Description: Selectivity: vault PARP inhibition. Format: biochemical. Particulars: at concentrations up to 1 μM.

Chain of vault PARP (Q9UKK3 whole entry): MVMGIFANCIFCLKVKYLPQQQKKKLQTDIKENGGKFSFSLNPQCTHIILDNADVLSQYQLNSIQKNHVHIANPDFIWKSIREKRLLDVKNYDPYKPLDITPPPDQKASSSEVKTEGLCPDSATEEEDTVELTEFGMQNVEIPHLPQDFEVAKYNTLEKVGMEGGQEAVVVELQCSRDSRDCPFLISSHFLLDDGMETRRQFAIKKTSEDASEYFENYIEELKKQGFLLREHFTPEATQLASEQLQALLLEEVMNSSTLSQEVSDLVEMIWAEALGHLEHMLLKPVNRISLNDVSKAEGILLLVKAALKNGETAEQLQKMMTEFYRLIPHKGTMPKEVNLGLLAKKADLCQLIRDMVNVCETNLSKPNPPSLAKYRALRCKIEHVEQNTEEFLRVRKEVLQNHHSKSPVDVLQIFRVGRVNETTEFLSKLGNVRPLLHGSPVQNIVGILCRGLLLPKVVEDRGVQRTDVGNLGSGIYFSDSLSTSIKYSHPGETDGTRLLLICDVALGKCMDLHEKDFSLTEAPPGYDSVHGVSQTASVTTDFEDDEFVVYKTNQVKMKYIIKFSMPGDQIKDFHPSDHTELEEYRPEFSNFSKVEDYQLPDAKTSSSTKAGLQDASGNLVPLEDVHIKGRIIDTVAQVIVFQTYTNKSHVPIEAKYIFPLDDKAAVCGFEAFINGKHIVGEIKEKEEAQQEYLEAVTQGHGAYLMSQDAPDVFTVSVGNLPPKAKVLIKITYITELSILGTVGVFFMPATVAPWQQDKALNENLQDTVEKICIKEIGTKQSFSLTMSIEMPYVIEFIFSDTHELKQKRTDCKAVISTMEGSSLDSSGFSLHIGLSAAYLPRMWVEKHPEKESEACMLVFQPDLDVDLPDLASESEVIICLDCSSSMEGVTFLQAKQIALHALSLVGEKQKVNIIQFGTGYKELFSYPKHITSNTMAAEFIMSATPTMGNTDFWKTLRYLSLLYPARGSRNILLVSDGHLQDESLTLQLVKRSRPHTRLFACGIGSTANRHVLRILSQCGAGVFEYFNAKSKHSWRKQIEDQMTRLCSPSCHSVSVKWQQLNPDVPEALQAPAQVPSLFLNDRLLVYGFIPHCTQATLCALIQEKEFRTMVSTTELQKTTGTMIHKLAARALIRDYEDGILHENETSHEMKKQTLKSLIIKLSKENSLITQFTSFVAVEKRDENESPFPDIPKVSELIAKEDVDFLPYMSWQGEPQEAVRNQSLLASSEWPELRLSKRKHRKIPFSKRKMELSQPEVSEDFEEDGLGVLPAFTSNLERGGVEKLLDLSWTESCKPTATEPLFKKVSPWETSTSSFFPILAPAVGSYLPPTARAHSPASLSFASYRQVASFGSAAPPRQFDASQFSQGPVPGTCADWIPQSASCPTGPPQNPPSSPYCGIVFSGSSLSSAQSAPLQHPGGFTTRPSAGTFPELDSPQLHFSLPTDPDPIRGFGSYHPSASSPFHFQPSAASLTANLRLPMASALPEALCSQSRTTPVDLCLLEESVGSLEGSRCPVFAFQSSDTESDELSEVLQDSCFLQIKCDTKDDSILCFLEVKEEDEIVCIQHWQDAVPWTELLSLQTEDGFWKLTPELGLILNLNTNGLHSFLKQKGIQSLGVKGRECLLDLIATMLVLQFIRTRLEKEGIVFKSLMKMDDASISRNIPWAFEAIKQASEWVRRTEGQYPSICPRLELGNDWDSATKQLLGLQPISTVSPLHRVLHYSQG

Regarding `O=C1CCC(=O)N1c1cc(Cc2n[nH]c(=O)c3ccccc23)ccc1F` [KU0058684], the “inhibition of vault PARP” value was “do not inhibit”.
